Molecules are shown by their SMILES.

This data set is described as follows: Solubility of TMC278 in water (statement). It counts as physicochemical. Particulars: free base; background statement.

On to `Cc1cc(C=CC#N)cc(C)c1Nc1ccnc(Nc2ccc(C#N)cc2)n1` [TMC278, 4-[[4-[[4-(2-cyano-ethenyl)-2,6-dimethylphenyl]-amino]-2-pyrimidinyl]-amino]-benzonitrile], for which the solubility in water entry was “poorly soluble in water”.

Values taken from US8916558B2, “Powders for reconstitution” (Tibotec Pharmaceuticals Ltd., priority 2007, dated 2014).
